Assay results taken from patent publication US11649218B2, “C-Abl tyrosine kinase inhibitory compound embodiments and methods of making and using the same” (The USA, as represented by the Secretary, Dept. of Health …, priority 2018, dated 2023).

Experiments:
Leukemia K562 cell = Leukemia K562 cell proliferation/viability assay (CellTiterGlo, 48 hours); assay type: cell-based; set-up: unit not given here; settings: K562 cells
Method in brief: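 BCR-Abl-dependent K562 cells treated with compound for 48 hours in an HTS-adapted format. Viability read out with CellTiterGlo reagent.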

CML (K562) cell line = assay: K562 cell proliferation inhibition by MTT assay, 48 hours; assay type: cell-based; settings: Homo sapiens; K562, 48 hours, determined in different assays
Description: In this example, the ability of two compound embodiments described here, NCGC00373060 and NCGC00373056, to induce cell death in the CML (K562) cell line was evaluated. The leukemia cells were incubated with different concentrations of the compounds for 48 hours, and the cell proliferation inhibition was evaluated by the MTT assay. […] The leukemia cells were incubated with different concentrations of each compound embodiment for 48 hours, and the cell proliferation inhibition was evaluated by the MTT assay.

[1] = test system: P. falciparum strain NF54 asexual parasites; assay: Asexual stage parasite growth inhibition, SYBR Green assay, 72 hours; assay type: cell-based; settings: NF54, 72 hours
Description: In this example, several of the c-Abl inhibitors were tested in the asexual […] strain of P. falciparum parasites for activity against malaria. […] The pre-diluted parasites were dispensed into a 1536-well plate (2.5 μL/well). […] The fluorescence of each well was measured at 520 nm following excitation at 490 nm using a ViewLux platereader (PerkinElmer).

[2] = Pharmacokinetic profile in plasma; assay type: in vivo, mice; settings: 12.5 mg/kg IP
[3] = Pharmacokinetic profile in brain; assay type: in vivo, mice; settings: 12.5 mg/kg IP
TLE mice model [4] = assay: Pilocarpine-induced status epilepticus (SE) after 15 days of supplemented diet; assay type: in vivo, mice (C57BL/6)
Description: In this example, the ability of compound embodiments of the present disclosure to increase survival and diminish seizure symptoms in a TLE mice model was evaluated. […] The animals' weights were determined the week before and during the two weeks of c-Abl inhibitors treatment (results are provided in Table 12 and are illustrated graphically in FIG. 28). After 15 days of feeding, status epilepticus (SE) induction was evaluated. The mice were IP injected with Scopolamine (1.5 mg/Kg) and after 15 minutes, the SE was induced by IP injection of Pilocarpine (420 mg/Kg). The animals' behavior and the seizures induction was evaluated according to Racine's scale and the survival was determined during 60 minutes post-SE induction. […] Results are tabulated in Table 13, below and also are illustrated graphically in FIGS. 29A-29D.

TLE mice model [5] = assay: Pilocarpine TLE epilepsy model, IP pre-treatment; settings: 5 mg/Kg IP each day three days before Pilocarpine
Description: The injected animals were observed by 60 min after the Pilocarpine.

hippocampal neurons = assay: Neuronal death induced by Glutamate, MTT cell viability test
[6] = mean, diet 67 ppm NCGC00373060 or 200 ppm Nilotinib

With `O=C1Nc2cc(OC(F)(F)F)ccc2Oc2ccc(-c3ccnc(N4CCNCC4)c3)cc21` [NCGC00373060, 2-(2-(Piperazin-1-yl)pyridin-4-yl)-8-(trifluoromethoxy)dibenzo[b,j][1,4]oxazepin-11(10H)-one] the Efficacy (Leukemia K562 cell) was −99.1, the AC50 (CML (K562) cell line) was 5 µM and the “% Killing” value [1] was 89.9%. It also gave an IC50 ([1]; Plasmodium falciparum) of 1.63 µM, a Plasma concentration ([2]; Time 0.167) of 4440 nM and a Plasma concentration ([2]; Time 0.5) of 4784 nM. The Plasma concentration ([2]; Time 1) was 7844 nM, the Plasma concentration ([2]; Time 2) was 4112 nM and the Plasma concentration ([2]; Time 4) was 2709 nM. It also gave a Plasma concentration ([2]; Time 7) of 1723 nM, a Plasma concentration ([2]; Time 24) of 581 nM and a Plasma concentration ([2]; Time 48) of 138 nM. It also gave a Plasma concentration ([2]; Time 72) of 70 nM, a Plasma concentration ([2]; Time 96) of 36 nM and a Plasma concentration ([2]; Time 120) of 11 nM. For the same molecule, the Plasma concentration ([2]; Time 168) was 4 nM, the Brain concentration ([3]; Time 0.167) was 0.208 µmol/kg and the Brain concentration ([3]; Time 0.5) was 0.275 µmol/kg. It also gave a Brain concentration ([3]; Time 1) of 0.595 µmol/kg, a Brain concentration ([3]; Time 2) of 0.912 µmol/kg and a Brain concentration ([3]; Time 4) of 1.351 µmol/kg. The Brain concentration ([3]; Time 7) was 1.887 µmol/kg, the Brain concentration ([3]; Time 24) was 1.198 µmol/kg and the Brain concentration ([3]; Time 48) was 0.493 µmol/kg. It also gave a Brain concentration ([3]; Time 72) of 0.208 µmol/kg, a Brain concentration ([3]; Time 96) of 0.089 µmol/kg and a Brain concentration ([3]; Time 120) of 0.044 µmol/kg. For the same molecule, the Brain concentration ([3]; Time 168) was 0.010 µmol/kg, the Survival % (TLE mice model [4]; individual mice, 60 minutes post-SE induction) was 100% and the “Latency SE” value (TLE mice model [4]; individual mice, diet 67 ppm NCGC00373060 or 200 ppm Nilotinib) was 19 min. For the same molecule, the “Survival %, mean” value (TLE mice model [4]; mean, 60 minutes post-SE induction) was 100%, the “Latency SE, mean” value (TLE mice model [4]; [6]) was 19 min and the “SE %, mean” value (TLE mice model [4]; [6]) was 40%. The “mortality associated to the epileptic status” value (TLE mice model [5]) was “decreases the mortality associated to the epileptic status”, the “seizures, latency time” value (TLE mice model [5]) was “prevented the seizures increasing the latency time” and the “protection against neuronal death induced by Glutamate” value (hippocampal neurons) was “protects neurons against neuronal death induced by Glutamate”.
